Data published in PMC8296708, “The pan HDAC inhibitor Givinostat improves muscle function and histological parameters in two Duchenne muscular dystrophy murine models expressing different haplotypes of the LTBP4 gene” (Skeletal Muscle, 2021).
Like-named read-outs stand apart in the source and are kept apart here.

Experiment: Pharmacokinetic study: plasma, blood and quadriceps Givinostat levels after single oral dose (LC-MS/MS)
Assay type: in vivo, mdx mice (C57BL/10ScSn-Dmd^mdx/J)
Conditions: mdx mice; for Kp: quadriceps muscle and plasma
Procedure: For the PK study, C57BL/10ScSn-Dmd^mdx/J (Stock No: 001801) 9-week-old male mice were purchased from The Jackson Laboratories (Bar Harbor, Maine, USA). After 5 days of acclimatization in the animal facility, mdx mice were randomized into 4 treatment groups (28 mice/group; 4 mice/cage) and 1 untreated group (4 mice) based on their BW. Animals were administered with single oral dose of Givinostat at 5, 10, 25, and 37.5 mg/kg and samples were collected at the following time points: 0.5, 1, 1.5, 2, 3, 4, and 6 h after administration.
In the PK study, formulations were prepared suspending Givinostat in 0.5% methylcellulose at the concentrations of 0.5, 1, 2.5, and 3.75 mg/mL. The administered volume was 10 mL/kg to obtain 5, 10, 25, and 37.5 mg/kg dosages.
Mice were maintained under isoflurane anesthesia. Blood samples were collected in two aliquots from the retro-orbital plexus of mice and transferred into tubes containing heparin as anticoagulant (100 USPunits/mL) and then mice were sacrificed by cervical dislocation. One aliquot of 50 μL was diluted with the same volume of water and immediately frozen in dry ice. This blood was analyzed in order to subtract the blood content of Givinostat from the muscle homogenate. The other aliquot of blood was centrifuged for 10 min at 13,000 rpm at 4 °C and plasma was separated and frozen in dry ice. The quadriceps of the right hindlimb was removed, weighed, and then washed twice in 1 mL of PBS pH 7.4 and dried with paper, then it was frozen in dry ice.
Givinostat was determined in mouse plasma (50 μL) following a protein precipitation (200 μL of 1% HCOOH in acetonitrile) and Ostro (Waters) plate filtration. The organic phase was evaporated under a stream of nitrogen; the residue was re-dissolved in the reconstitution solvent (100 μL of 25% CH3CN-75% H2O-0.05% TFA), and 5 μL was analyzed. Givinostat concentrations were measured by LC-MS/MS method, in the calibration range of 0.5–400 ng/mL.
Givinostat was determined in diluted blood (100 μL, 1:2 in water) with a liquid-liquid extraction. Samples were mixed and extracted with 2 mL of diethyl ether and centrifuged, and the organic phase was separated and evaporated under a stream of nitrogen. The residue was re-dissolved in the reconstitution solvent (150 μL of 25% CH3CN-75% H2O-0.05% TFA), sonicated, and filtered (regenerated cellulose syringe filters), and 5 μL was analyzed by LC-MS/MS method. The calibration range of the method was 1–200 ng/mL.
Mouse quadriceps were homogenized in PBS pH = 7.4 (1:10 w/v) with ultrasonic homogenizer (Sonoplus Mini20 - Bandelin) maintaining the samples in an ice bath. Quadricep homogenate (100 μL) was added with 200 μL of 0.5% TFA in CH3CN, vortexed, and centrifuged. Then, 100 μL of supernatant was diluted with H2O (1:2). Samples were filtered (regenerated cellulose syringe filters) and aliquots of 5 μL were analyzed. Givinostat concentrations were measured by LC-MS/MS method, in the calibration range of 1–40 ng/mL.
PK parameters were evaluated on mean curves using conventional non-compartmental methodology by the software KineticaTM v. 5.1. Quadriceps concentrations were expressed as nanograms per gram of muscle, this value was obtained by multiplying the homogenate concentrations obtained for the homogenate volume, then subtracting the residual blood content, as reported in literature, considering the measured blood concentrations and dividing for the muscle weight.

[1] = male, C57BL/10ScSn-Dmd^mdx/J (mdx), mouse, blood, 5 mg/kg single oral dose
[2] = male, C57BL/10ScSn-Dmd^mdx/J (mdx), mouse, blood, 10 mg/kg single oral dose
[3] = male, C57BL/10ScSn-Dmd^mdx/J (mdx), mouse, blood, 25 mg/kg single oral dose
[4] = male, C57BL/10ScSn-Dmd^mdx/J (mdx), mouse, blood, 37.5 mg/kg single oral dose
[5] = male, C57BL/10ScSn-Dmd^mdx/J (mdx), mouse, plasma, 5 mg/kg single oral dose
[6] = male, C57BL/10ScSn-Dmd^mdx/J (mdx), mouse, plasma, 10 mg/kg single oral dose
[7] = male, C57BL/10ScSn-Dmd^mdx/J (mdx), mouse, plasma, 25 mg/kg single oral dose
[8] = male, C57BL/10ScSn-Dmd^mdx/J (mdx), mouse, plasma, 37.5 mg/kg single oral dose

With `CCN(CC)Cc1ccc2cc(COC(=O)Nc3ccc(C(=O)NO)cc3)ccc2c1` [Givinostat] the “Detectability in plasma, blood and muscle samples after oral treatment” value (all doses investigated (5-37.5 mg/kg p.o.)) was “detectable in all plasma, blood, and muscle samples up to 6 h”, the blood plasma ratio (male, C57BL/10ScSn-Dmd^mdx/J (mdx), mouse, blood and plasma, 5 mg/kg single oral dose, read-out: AUCtot Blood/Plasma ratio) was 1.6 and the blood plasma ratio (male, C57BL/10ScSn-Dmd^mdx/J (mdx), mouse, blood and plasma, 25 mg/kg single oral dose, read-out: AUCtot Blood/Plasma ratio) was 1.5. The blood plasma ratio (male, C57BL/10ScSn-Dmd^mdx/J (mdx), mouse, blood and plasma, 37.5 mg/kg single oral dose, read-out: AUCtot Blood/Plasma ratio) was 1.4, the blood plasma ratio (male, C57BL/10ScSn-Dmd^mdx/J (mdx), mouse, blood and plasma, mean over 5, 10, 25, 37.5 mg/kg oral doses, read-out: AUCtot Blood/Plasma ratio, mean) was 1.6 and the Cmax (male, C57BL/10ScSn-Dmd^mdx/J (mdx), mouse, blood, po, 5 mg/kg, blood, 5 mg/kg single oral dose, read-out: Cmax) was 35.1 ng/mL. It also gave a Cmax (male, C57BL/10ScSn-Dmd^mdx/J (mdx), mouse, blood, po, 10 mg/kg, blood, 10 mg/kg single oral dose, read-out: Cmax) of 170 ng/mL, a Cmax (male, C57BL/10ScSn-Dmd^mdx/J (mdx), mouse, blood, po, 25 mg/kg, blood, 25 mg/kg single oral dose, read-out: Cmax) of 639 ng/mL and a Cmax (male, C57BL/10ScSn-Dmd^mdx/J (mdx), mouse, blood, po, 37.5 mg/kg, blood, 37.5 mg/kg single oral dose, read-out: Cmax) of 1120 ng/mL. For the same compound, the Cmax (male, C57BL/10ScSn-Dmd^mdx/J (mdx), mouse, plasma, po, 5 mg/kg, plasma, 5 mg/kg single oral dose, read-out: Cmax) was 24 ng/mL, the Cmax (male, C57BL/10ScSn-Dmd^mdx/J (mdx), mouse, plasma, po, 10 mg/kg, plasma, 10 mg/kg single oral dose, read-out: Cmax) was 96.7 ng/mL and the Cmax (male, C57BL/10ScSn-Dmd^mdx/J (mdx), mouse, plasma, po, 25 mg/kg, plasma, 25 mg/kg single oral dose, read-out: Cmax) was 416 ng/mL. The Cmax (male, C57BL/10ScSn-Dmd^mdx/J (mdx), mouse, plasma, po, 37.5 mg/kg, plasma, 37.5 mg/kg single oral dose, read-out: Cmax) was 807 ng/mL, the Kp (male, C57BL/10ScSn-Dmd^mdx/J (mdx), mouse, po, 5 mg/kg, 5 mg/kg single oral dose, read-out: AUCtot Muscle/Plasma ratio) was 6.2 and the Kp (male, C57BL/10ScSn-Dmd^mdx/J (mdx), mouse, po, 10 mg/kg, 10 mg/kg single oral dose, read-out: AUCtot Muscle/Plasma ratio) was 5.8. It also gave a Kp (male, C57BL/10ScSn-Dmd^mdx/J (mdx), mouse, po, 25 mg/kg, 25 mg/kg single oral dose, read-out: AUCtot Muscle/Plasma ratio) of 2.8, a Kp (male, C57BL/10ScSn-Dmd^mdx/J (mdx), mouse, po, 37.5 mg/kg, 37.5 mg/kg single oral dose, read-out: AUCtot Muscle/Plasma ratio) of 3.2 and a Kp (male, C57BL/10ScSn-Dmd^mdx/J (mdx), mouse, po, 37.5 mg/kg, mean over 5, 10, 25, 37.5 mg/kg oral doses, read-out: AUCtot Muscle/Plasma ratio, mean) of roughly 4.5. For the same compound, the Cmax (male, C57BL/10ScSn-Dmd^mdx/J (mdx), mouse, quadriceps muscle, po, 5 mg/kg, muscle (quadriceps), 5 mg/kg single oral dose, read-out: Cmax) was 117 ng/g, the Cmax (male, C57BL/10ScSn-Dmd^mdx/J (mdx), mouse, quadriceps muscle, po, 10 mg/kg, muscle (quadriceps), 10 mg/kg single oral dose, read-out: Cmax) was 197 ng/g and the Cmax (male, C57BL/10ScSn-Dmd^mdx/J (mdx), mouse, quadriceps muscle, po, 25 mg/kg, muscle (quadriceps), 25 mg/kg single oral dose, read-out: Cmax) was 607 ng/g. The Cmax (male, C57BL/10ScSn-Dmd^mdx/J (mdx), mouse, quadriceps muscle, po, 37.5 mg/kg, muscle (quadriceps), 37.5 mg/kg single oral dose, read-out: Cmax) was 1180 ng/g, the blood plasma ratio (male, C57BL/10ScSn-Dmd^mdx/J (mdx), mouse, whole blood and plasma, 10 mg/kg single oral dose, read-out: AUCtot Blood/Plasma ratio) was 1.8 and the AUC [1] was 156 ng·h/mL. For the same compound, the Tmax [1] was 3 h, the AUC [2] was 458 ng·h/mL and the Tmax [2] was 2 h. The AUC [3] was 1810 ng·h/mL, the Tmax [3] was 1.5 h and the AUC [4] was 2180 ng·h/mL. For the same compound, the Tmax [4] was 0.5 h, the Tmax (male, C57BL/10ScSn-Dmd^mdx/J (mdx), mouse, muscle (quadriceps), 5 mg/kg single oral dose) was 3 h and the Tmax (male, C57BL/10ScSn-Dmd^mdx/J (mdx), mouse, muscle (quadriceps), 10 mg/kg single oral dose) was 2 h. It also gave a Tmax (male, C57BL/10ScSn-Dmd^mdx/J (mdx), mouse, muscle (quadriceps), 25 mg/kg single oral dose) of 2 h, a Tmax (male, C57BL/10ScSn-Dmd^mdx/J (mdx), mouse, muscle (quadriceps), 37.5 mg/kg single oral dose) of 0.5 h and an AUC [5] of 95.2 ng·h/mL. For the same compound, the Tmax [5] was 0.5 h, the AUC [6] was 261 ng·h/mL and the Tmax [6] was 2 h. The AUC [7] was 1230 ng·h/mL, the Tmax [7] was 1.5 h and the AUC [8] was 1510 ng·h/mL. The Tmax [8] was 0.5 h, the “AUCtot Muscle/Plasma ratio, mean” value (mean over 5, 10, 25, 37.5 mg/kg oral doses, listed as ITF2357) was 4.5 and the AUCtot (muscle (quadriceps), 5 mg/kg single oral dose) was 594.4 ng·h/g. For the same compound, the AUCtot (muscle (quadriceps), 10 mg/kg single oral dose) was 1511.9 ng·h/g, the AUCtot (muscle (quadriceps), 25 mg/kg single oral dose) was 3511.2 ng·h/g and the AUCtot (muscle (quadriceps), 37.5 mg/kg single oral dose) was 4804.6 ng·h/g. It also gave a Cmax (plasma, 5 mg/kg single oral dose, listed as ITF2357, 5 mg/kg) of 24.17 ng/mL and a Cmax (plasma, 37.5 mg/kg single oral dose, listed as ITF2357, 37.5 mg/kg) of 807.39 ng/mL.
